This note sets out measurements from patent publication US7576128B2 (priority 2004, dated 2009).

In one assay the test system is male Syrian hamsters. Description: Animal model for inhibition of sebum production (hamster ear, HPLC of sebum components). The class given is in vivo. Particulars: for % Reduction in CE: cholesterol ester; for % Reduction in CE / % Reduction in WE: 3 w/v% topical twice daily, five days a week, 4 weeks, difference from vehicle control; for Sum CE + WE: summation of CE and WE reductions; for % Reduction in WE: wax ester. The method, then: Luderschmidt et al describes an animal model for testing whether compounds are capable of modulating sebum secretion. Arch. Derm. Res. 258, 185-191 (1977). This model uses male Syrian hamsters, whose ears contain sebaceous glands. Selected compounds produced above were screened in this model.
Testing for sebum inhibition was carried out in the following manner. Male Syrian hamsters aged 9 to 10 weeks were introduced into the laboratory environment and acclimated for 2 weeks prior to use in the study. Each group consisted of 5 animals and were run in parallel with vehicle and positive controls. Prior to administration, 30mg of each compound was dissolved in 1 mL of Universal solvent (ethanol/propylene glycol (70/30%v/v) to achieve a final concentration of 3 w/v%.
Animals were dosed topically twice daily, five days a week, for 4 weeks. Each dose consisted of 25 micro liters of vehicle control or drug. The dose was applied to the ventral surfaces of both the right and left ears. All animals were sacrificed approximately 18-24 hours after the final dose. The right ears were collected from each animal and used for sebum analysis.
The ears were prepped for HPLC analysis in the following manner. One 8mm distal biopsy punch was taken, just above the anatomical “V” mark in the ear to normalize the sample area. The punch was pulled apart. The ventral biopsy surface (the area where the topical dose was directly applied to the sebaceous glands) was retained for testing and the dorsal surface of the biopsy punch was discarded.
HPLC analysis was carried out on an extract of the tissue sample. Tissue samples were contacted with 3ml of solvent (a 4:1 admixture of 2,2,4-trimethylpentane and isopropyl alcohol). The mixture was shaken for 15 minutes and stored overnight at room temperature, protected from light. The next morning 1 milliliter of water was added to the sample and shaken for 15 minutes. The sample was then centrifuged at approximately 1500 rpm for 15 minutes. Two ml of the organic phase (top layer) was transferred to a glass vial, dried at 37° C., under nitrogen, for approximately 1 hour, and then lyophilized for approximately 48 hours. The samples were then removed from the lyophilizer and each vial was reconstituted with 600 μl of solvent A (trimethylpentane/tetrahydrofuran (99:1). The samples were then recapped and vortexed for 5 minutes.
The results are reported as the reduction in cholesterol ester (CE) and wax ester (WE) production, when compared to the vehicle control.
Columns 1 and 2 identify the compound by structure and Example number. Columns 3 through 5 show the effect the compounds had on the -reduction of sebum components (CE and WE). The results are expressed as the difference from the vehicle control. A positive number reflects a decrease in the production of the sebum component being measured, i.e. cholesterol ester (CE) or wax ester (WE).

The next assay has as its system Male C3H/HeN mice. Description: Modified telogen conversion assay (hair growth, induction of anagen). Format: in vivo. The note with it: topical twice daily for 4 weeks. The text has this: It has been discovered that male C3H/HeN mice may be used in the telogen conversion assay, when evaluating anti-androgen test compounds. Thus, the model relates to a modification of the existing telogen conversion assay. Male C3H/HeN mice approximately 7 weeks old are utilized. These animals are also uniformly in telogen, like their female counterparts. However, once shaven, the androgens inherently present in these male mice inhibit the conversion of the hair follicles to the anagen phase. An anti-androgen will block this androgenic effect and the follicles will convert to anagen, like their female counterparts.
Male C3H/HeN mice, 6 to 7 weeks old (Charles River Laboratories, Raleigh, N.C.) were used for the study. Fur was clipped from the dorsal region of the mice prior to initiation of the study. Only mice with pink skin, a visual indication of the telogen phase, were selected for inclusion in the study.
The test compound was dissolved in a vehicle consisting of propylene glycol (30%) and ethanol (70%) to achieve a concentration of either 0.2% w/v, 0.5% w/v, 1% w/v or 3% w/v. The relevant dose was applied topically to the clipped dorsal region of the mice in one test group (7-10 mice) in a volume of 20 μl/cm^2. A third group of animals received only the vehicle to serve as a control. Treatments were applied twice daily for 4 weeks.
The treatment area was observed and graded every other day for signs of hair growth. The hair growth response was quantified by recording, for each animal, the day on which signs of hair growth first appeared over the treated area. The first sign of anagen was the darkening of skin color as melanocytes in the follicles started to synthesize melanin in preparation for the production of pigmented hairs. […] The percentage of mice showing signs of hair growth in both the treatment group and the control group is graphically depicted in FIG. 1.

For the molecule `CCCCC(COc1ccc(C#N)c(C(F)(F)F)c1)C(C)O` (centres unmarked) [Example 15, 4-[2-(1-Hydroxy-ethyl)-hexyloxy]-2-tri-fluoromethyl-benzonitrile], in the assay on male Syrian hamsters, the “% Reduction in CE” value stood at 54%, the “Sum CE + WE” value was determined as 128% and the “% Reduction in WE” value is reported as 74%.
Turning to `C[C@H](O)CC[C@H](C)Oc1ccc(C#N)c(C(F)(F)F)c1` [Example 23, (1S,4S)-4-(4-Hy-droxy-1-methylpentyl-oxy)-2-tri-fluoromethyl-benzonitrile], in the assay on Male C3H/HeN mice (5% test group), the “rate of hair growth versus vehicle control group” value is on record as “did not exceed that of the vehicle control group”. In addition, in the assay with Male C3H/HeN mice (concentration of 1%), the “hair growth (induction of anagen)” value is on record as “produced substantial hair growth”. In addition, in the assay on male Syrian hamsters, the “% Reduction in CE” value stood at 67%, the “Sum CE + WE” value stood at 154% and the “% Reduction in WE” value came to 87%.
